Test results from patent US20130065969A9, “Odour Compounds” (priority 2009, published 2013).

Assays:
[1] = Vapour pressure by saturated headspace trapping and GC quantification; type: physicochemical; details: headspace concentration at constant 25° C., mean of three independent measurements
Description: For each compound the vapour pressure was determined via the following procedure: 500 mg of the test compound was added to a headspace container which was then scaled. The container was incubated at constant 25° C. until the compound reached equilibrium between the gas and the liquid phase. An exactly defined but variable volume between 0.5-1.0 L of this saturated headspace was trapped on a micro filter using Porapak Q as sorbent. After filter extraction with 30-100 μl methyl tert.-butyl ether), an aliquot of the extract was analyzed by gas chromatograph (GC). Quantification was performed by the external standard calibration method. The concentration in the original headspace was calculated (in terms of μg/l) from the headspace volume sucked through the micro filter and the aliquot of the filter extract injected into the gas chromatograph. The final headspace concentration value for a given test compound was obtained as the mean value of three independent measurements.
Further information of the technique described hereinabove may be found in the article of F. Etzweiler, E. Senn, N. Neuner-Jehle, Ber. Bunsen-Ges. Phys. Chem. 1984, 88, 578.

[2] = Odour threshold by GC detection at the sniffing port (panel of 5 persons); details: mean of individual thresholds of 5 panelists
Description: For each compound the odour threshold value was determined by gas chromatograph (GC) detection. […] Each panelist (panel of 5 persons) smelled blind and pressed a button upon perceiving an odor. If the recorded time matched the retention time, the sample was further diluted. The last quantity detected at the correct retention time was the panelist's individual odor threshold. The final threshold value for a given test compound was obtained as the mean value of the individual threshold levels.
Further information of the technique described hereinabove may be found in N. Neuner-Jehle, F. Etzweiler. ‘Measuring of Odors’, in P. Müller. D. Lamparsky (Eds,). ‘Perfumes. Art, Science and Technology’, Elsevier Appl. Science Publ., London. 1991: pp. 153.

With `CC/C(=C\C(C)C)C(C)OC(C)(C)COC(=O)C1CC1` (centres unmarked) [Example 2, (3″E)-2′-(3″-Ethyl-5″-methylhex-3″-en-2″yloxy)-2′-methylpropyl cyclopropanecarboxylate] the “Vapour Pressure” value [1] was 10.61 µg/L and the “Odour Threshold” value [2] was 2.2 ng/L.

In the case of `CC/C(=C\C(C)C)C(C)OC(C)(C)COC(=O)C1CCC1` (centres unmarked) [Example 4, (3″E)-2′-(3″-Ethyl-5″-methylhex-3″-en-2″-yloxy)-2′-methylpropyl cyclobutanecarboxylate], the “Vapour Pressure” value [1] was 4.76 µg/L.

With `C/C(=C\C(C)C)C(C)OC(C)(C)COC(=O)C1CC1` (centres unmarked) [(3″E)-2-(3,5-Dimethylhex-3-en-2-yloxy)-2-methylpropyl cyclopropanecarboxylate, reference compound] the “Vapour Pressure” value [1] was 27.57 µg/L and the “Odour Threshold” value [2] was 5.9 ng/L.
